Tests used:
Type in all cases: biochemical
Porcine Atria myofibrils = assay: Myofibril ATPase assay (PK/LDH NADH-coupled), atria myofibrils
Procedure, shortened: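 Porcine atrial myofibril ATPase followed via PK/LDH-coupled NADH depletion, absorbance at 340 nm read every 1.5-2 min over 75 min. Slopes (mAU/min) normalized to vehicle as 100% and fit to a 4-parameter logistic; EC25% derived, plus EC50% for inhibitors.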

[1] = target: T1, myosin+human ventricle RLC (Sus scrofa, UniProt P79293); assay: NADH-coupled actin-activated ATPase assay, myosin + human ventricle RLC; conditions: 2 μM myosin, rabbit skeletal actin, 25° C., 1% DMSO
T1 construct: Full-length myosin was resuspended to 1 mg/mL
Experimental: (§1) Full-length myosin was resuspended to 1 mg/mL in a buffer containing 500 mM KCl, 10 mM KPi, 15 mM CDTA, pH 8.5. Triton-X was then added to a final concentration of […], and the suspension was agitated for 15 minutes at room temperature to selectively remove the regulatory light chain (RLC). RLC-removed myosin was then precipitated and collected and resuspended in a buffer containing 400 mM KCl, 50 mM Mops, pH 7, 2 mM MgCl2, and 1 mM DTT. Recombinantly expressed and purified human ventricle RLC was added in a 3-fold molar excess to myosin and incubated on ice for 2 hours to allow for reassociation of the RLC onto myosin. Triton (0.1%) was added to the reaction to prevent any non-specific binding events. RLC-exchanged myosin was then precipitated and collected and resuspended in a buffer containing 12 mM PIPES, pH 6.8, […], 2 mM MgCl2, and 1 mM DTT. RLC removal and exchange were confirmed by SDS-PAGE and proteins were visualized using coomassie stain.
(§2) Myosin was resuspended in buffer A (f.c.=12 mM PIPES, pH 6.8, 30 mM KCl, 2 mM MgCl2, 1 mM DTT, 0.1 mg/mL BSA, 0.01% (v/v) Antifoam 204, and 0.6% (v/v) PK/LDH (final reaction contains ≥3.6 U/mL PK and >5.4 U/mL LDH)) at final concentrations of 1 μM for myosin+native RLC and 2 μM for myosin+removed RLC and myosin+human ventricle RLC. Buffer A was then mixed with an equal volume of buffer B (f.c.=12 mM PIPES, pH 6.8, 30 mM KCl, 2 mM MgCl2, 1 mM DTT, 0.1 mg/mL BSA, 0.01% (v/v) Antifoam 204, 0.5 mM NADH, 1.5 mM phosphoenolpyruvate, 1 mM ATP, and 0.3 mg/mL filamentous rabbit skeletal actin) in a 384-well plate. Dose-dependent compound effects were assessed by adding the compounds at varying concentrations between 100 μM and 2 nM, all with a constant final DMSO concentration of 1% v/v. The reactions were run at a constant temperature of 25° C. in the plate reader to monitor the change in A340 over time. Measurements were taken every 90 sec for 75 min to generate raw time-domain absorbance data, which was processed to normalized reaction rates. Normalized enzymatic rates were calculated, using rates observed in 1% (v/v) in DMSO as 100% and 0 slope as 0%. Compound-specific activity curves were generated by plotting the normalized rates versus compound concentration and fitting the data to a 4-parameter logistic model. In addition to the fit parameters, the IC25% was calculated, relative to the 100% normalized value.

myosin+removed RLC = target: T2, myosin+removed RLC (Sus scrofa, UniProt P79293); assay: NADH-coupled actin-activated ATPase assay, myosin + removed RLC; conditions: 2 μM myosin, rabbit skeletal actin, 25° C., 1% DMSO
T2 construct: Full-length myosin was resuspended to 1 mg/mL
Experimental: as §1, §2

T2 sequence (P79293 whole entry): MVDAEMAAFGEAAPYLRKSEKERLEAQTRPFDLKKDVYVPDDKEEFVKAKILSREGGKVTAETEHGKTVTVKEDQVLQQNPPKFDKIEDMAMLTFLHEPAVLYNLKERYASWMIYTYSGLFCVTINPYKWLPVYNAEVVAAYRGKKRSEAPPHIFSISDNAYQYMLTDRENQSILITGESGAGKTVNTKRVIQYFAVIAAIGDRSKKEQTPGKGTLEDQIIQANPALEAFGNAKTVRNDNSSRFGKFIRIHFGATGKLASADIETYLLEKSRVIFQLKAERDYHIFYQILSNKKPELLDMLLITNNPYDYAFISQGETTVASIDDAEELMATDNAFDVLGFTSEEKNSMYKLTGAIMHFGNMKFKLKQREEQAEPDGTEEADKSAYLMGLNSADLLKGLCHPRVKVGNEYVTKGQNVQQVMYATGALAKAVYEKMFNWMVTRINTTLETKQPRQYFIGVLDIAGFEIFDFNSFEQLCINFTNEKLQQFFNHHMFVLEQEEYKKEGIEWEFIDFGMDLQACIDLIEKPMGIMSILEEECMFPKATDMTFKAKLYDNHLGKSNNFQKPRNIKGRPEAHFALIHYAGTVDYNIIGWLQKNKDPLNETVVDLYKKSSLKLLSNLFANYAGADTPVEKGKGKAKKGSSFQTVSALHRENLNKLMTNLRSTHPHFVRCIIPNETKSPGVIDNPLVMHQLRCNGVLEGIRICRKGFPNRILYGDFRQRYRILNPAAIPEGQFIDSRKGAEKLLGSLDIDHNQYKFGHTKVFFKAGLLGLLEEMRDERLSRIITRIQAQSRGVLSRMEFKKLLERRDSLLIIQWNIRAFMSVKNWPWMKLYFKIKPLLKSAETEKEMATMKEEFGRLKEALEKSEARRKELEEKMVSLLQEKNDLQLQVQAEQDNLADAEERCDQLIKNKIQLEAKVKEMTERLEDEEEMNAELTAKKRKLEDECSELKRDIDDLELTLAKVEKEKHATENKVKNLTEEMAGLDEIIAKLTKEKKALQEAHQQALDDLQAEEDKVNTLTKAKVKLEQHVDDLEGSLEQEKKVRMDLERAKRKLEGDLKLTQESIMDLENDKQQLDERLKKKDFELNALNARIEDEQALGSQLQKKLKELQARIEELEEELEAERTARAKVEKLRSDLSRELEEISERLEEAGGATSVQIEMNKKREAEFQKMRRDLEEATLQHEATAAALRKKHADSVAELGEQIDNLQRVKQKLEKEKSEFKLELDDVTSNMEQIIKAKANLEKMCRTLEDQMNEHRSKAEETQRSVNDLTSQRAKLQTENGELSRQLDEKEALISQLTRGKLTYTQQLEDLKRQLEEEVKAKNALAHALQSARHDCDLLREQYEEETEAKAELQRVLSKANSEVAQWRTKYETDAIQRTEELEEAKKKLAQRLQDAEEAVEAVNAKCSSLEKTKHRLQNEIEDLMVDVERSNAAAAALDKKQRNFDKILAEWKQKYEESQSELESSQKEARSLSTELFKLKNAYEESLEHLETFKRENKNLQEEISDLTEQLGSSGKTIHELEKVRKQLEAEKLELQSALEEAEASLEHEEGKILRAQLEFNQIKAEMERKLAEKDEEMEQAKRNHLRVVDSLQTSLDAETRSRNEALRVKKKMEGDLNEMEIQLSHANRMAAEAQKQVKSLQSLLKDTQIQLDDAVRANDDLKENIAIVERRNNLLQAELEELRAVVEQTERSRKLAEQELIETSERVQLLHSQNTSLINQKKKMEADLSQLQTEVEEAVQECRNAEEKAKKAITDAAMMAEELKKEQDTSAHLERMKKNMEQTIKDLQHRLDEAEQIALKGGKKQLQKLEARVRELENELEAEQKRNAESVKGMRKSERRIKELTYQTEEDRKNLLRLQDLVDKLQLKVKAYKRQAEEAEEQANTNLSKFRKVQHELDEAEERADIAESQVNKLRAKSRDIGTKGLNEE
T1 sequence (P79293 whole entry): as above

SMILES | Porcine Atria IC25 (Porcine Atria myofibrils; Table 8) [µM] | Potency, Full-length myosin + exchanged human ventricle RLC [1] [µM] | Potency, Full-length myosin + RLC removed (myosin+removed RLC) [µM] | Porcine Atria IC25 (Porcine Atria myofibrils; Table 7) [µM]
C[C@@H](NC(=O)CN1Cc2c(ccc(F)c2F)NC1=O)c1ncc(C#N)cc1F [Compound B141, (R)—N-(1-(5-cyano-3-fluoropyridin-2-yl)ethyl)-2-(5,6-difluoro-2-oxo-1,4-dihydroquinazolin-3(2H)-yl)acetamide] | 0.13 | 13.90 | >100.0 | –
O=C(CN1Cc2c(ccc(F)c2F)NC1=O)N[C@@H]1COc2cc(F)cc(F)c21 [Compound B147] | 0.05 | 0.48 | >100.0 | –
C[C@H](NC(=O)CN1Cc2cc(F)ccc2NC1=O)c1ccc(F)cc1F [Compound B247, N-[(1S)-1-(2,4-Difluorophenyl)ethyl]-2-(6-fluoro-2-oxo-1,4-dihydroquinazolin-3-yl)acetamide] | 0.06 | 1.02 | >100.0 | –
O=C(CN1Cc2cc(F)ccc2NC1=O)N[C@@H]1COc2cc(F)cc(F)c21 [Compound B145] | 0.02 | 0.67 | >100.0 | –
C[C@H](NC(=O)CN1Cc2cc(F)ccc2NC1=O)c1ncc(C#N)cc1F [Compound B199] | 0.09 | 0.629 | >100.0 | –
O=C(CN1C(=O)Nc2cccnc2C12CC2)N[C@@H]1COc2cc(F)cc(F)c21 [Compound N33] | – | 0.40 | >100.0 | 0.08
C[C@H](NC(=O)CN1Cc2c(ccc(F)c2F)NC1=O)c1ccc(C#N)cc1F [Compound B189] | 0.03 | 0.33 | >100.0 | –
CC(NC(=O)CN1Cc2cc(F)ccc2NC1=O)c1ccc(C#N)cc1F (single isomer, unassigned) [Compound B206] | 0.03 | 0.68 | >100.0 | –
C[C@H](NC(=O)CN1Cc2c(ccc(F)c2F)NC1=O)c1ncc(F)cc1F [Compound B191] | 0.04 | 0.44 | >100.0 | –
N#Cc1cnc2c(c1)OCC2NC(=O)CN1Cc2c(ccc(F)c2F)NC1=O (single isomer, unassigned) [Compound B65] | 0.06 | 0.69 | >100.0 | –
